This is an account of results in patent US10258635B2, “Formulations and compositions of vitamin D analogs for treating and preventing cancer and other diseases” (priority 2013, dated 2019).

“Also recorded” adds a separate entry of the source.

The target of one data set is VDR (Homo sapiens, UniProt P11473). As to the kind of experiment: Covalent linking to and activation of VDR. As to conditions: covalent link in ligand-binding pocket via a cysteine residue. Type of data set: biochemical.
The nature of data set [1]: Stability study in liver homogenate. The following applies: 37° C., 60 minutes, HPLC. Type of data set: in vitro ADME, mouse. Here is the method:
Pieces of liver, obtained from normal mice were minced and homogenized in phosphated saline with a polytron. […] The organic layer was dried in a stream of nitrogen and the residue was analyzed by HPLC (as above).

Data set [2] relates to DU-145 human prostate cancer cells. As to the kind of experiment: DU-145 xenograft, AMPI-109 vs APH-0701 (Example 12). Type of data set: in vivo, athymic mice. As to conditions: 0.5 μg/Kg. Here is the method:
Male, athymic mice (average weight 20 gm) were fed normal rat chow and water ad libitum. They were inoculated with DU-145 cells (5×10^6 cells, dispersed in 100 μl PBS) in the flank.

The nature of data set [3]: Maximum tolerated dose of AMPI-109 in DU-145 tumor-bearing SCID mice. Type of data set: in vivo. Here is the method: DU-145 prostate cancer cells (ATCC, Manassas, Va.) were grown in culture, and then approximately 5 million cells/animal was injected under the skin in the flank area of SCID mice (Charles River). Tumors grew in 2-3 weeks, and when they reached a size of approximately 1 cm^3, they were injected with 0.1, 0.5 and 1 μg/kg dose of AMPI-109 (in 5% […] in sesame oil) intraperitoneally. Dosing levels were limited by concentrations and volumes. Each group had six mice. Dosing was carried out every third day and weight of each mouse was recorded.

Another data set can be described thus: Serum-stability study. It counts as in vitro ADME. The following applies: pooled human serum, 37° C., 60 minutes, HPLC. The method, then:
The organic layer was dried in a stream of nitrogen and the residue was analyzed by HPLC (5% H2O— 95% methanol 1.5 ml/min, 265 nm detection, Agilent C18 column).

A further data set has as its system normal kidney cells. As to the kind of experiment: 3H-thymidine incorporation assay in normal kidney cells. Type of data set: cell-based. The following applies: 10^−6M. For orientation: Uptake of a labelled nucleoside into DNA is a usual measure of proliferation.
In data set [4] the test system is DU-145 human prostate cancer cells. Description: DU-145 xenograft efficacy, p.o. administration (Example 11). Type of data set: in vivo, nude mice.
For data set [5], the system named is LNCaP prostate cancer cells. As to the kind of experiment: 3H-thymidine incorporation assay, APH-0701 vs naked AMPI-109. Type of data set: cell-based. The method, then:
Antiproliferative activities in these cells were measured by ^3H-thymidine incorporation assay.

The next data set deals with DU-145 cells. Description: 3H-thymidine incorporation assay in DU-145 cells. It counts as cell-based, human.
In a further data set the test system is 24-OHase. Description: Message for 24-OHase in LNCaP cells. It counts as cell-based.
Data set [6] relates to RCC 54 kidney cancer cells. As to conditions: 7.5×10^−7 to 10^−6M.
Method: In a typical assay cells were grown to 50-60% confluence in 24-well plates in respective media containing 5% FBS, and serum starved for 20 hours, followed by treatment with various agents (in 0.1% ethanolic solution) or ethanol (vehicle) in serum-containing medium for 16 hours. After the treatment media was removed from the wells and replaced with media containing ^3H-thymidine (Sigma, 0.1 μCi) per well, and the cells were incubated for 3 hours at 37° C. After this period media was removed by aspiration and the cells were washed thoroughly (3×0.5 ml) with PBS. Ice-cold 5% perchloric acid solution (0.5 ml) was added to each well and the cells were incubated on ice for 20 minutes. After this incubation, perchloric acid was removed by aspiration, replaced with 0.5 ml of fresh perchloric acid solution and the cells were incubated at 70° C. for 20 minutes. Solution from each well was mixed with scintillation fluid and counted in a liquid scintillation counter. There were eight (8) wells per sample; statistics was carried out by Student's t test.
The subject of data set [7] is DU-145 human prostate cancer cells. As to the kind of experiment: DU-145 xenograft efficacy, i.p. administration (Example 10). Type of data set: in vivo, athymic mice. The method, then:
Male, athymic mice (average weight 20 gm) were fed normal rat chow and water ad libitum. They were inoculated with DU 145 cells, grown in culture in their flanks under light anesthesia. When the tumor size grew to approximately 100 mm^3 the animals were randomized into groups of ten (10) tumor-bearing animals, and they were given AMPI-109 (0.1 μg/kg), calcitriol (0.5 and 1 μg/kg), and vehicle (5% DMA in sesame oil) by intraperitoneal injection (i.p.) on every third day (when body weights were determined); and one group was left untreated. Treatment started on day 11 and stopped on day 30; and they were left untreated for two (2) additional days when they were sacrificed.

In data set [8] the test system is LNCaP, PC-3 and DU-145 prostate cancer cells. As to the kind of experiment: Anti-proliferation and apoptosis in prostate cancer cells (summary). It counts as cell-based.

Sequence of VDR (P11473 whole entry): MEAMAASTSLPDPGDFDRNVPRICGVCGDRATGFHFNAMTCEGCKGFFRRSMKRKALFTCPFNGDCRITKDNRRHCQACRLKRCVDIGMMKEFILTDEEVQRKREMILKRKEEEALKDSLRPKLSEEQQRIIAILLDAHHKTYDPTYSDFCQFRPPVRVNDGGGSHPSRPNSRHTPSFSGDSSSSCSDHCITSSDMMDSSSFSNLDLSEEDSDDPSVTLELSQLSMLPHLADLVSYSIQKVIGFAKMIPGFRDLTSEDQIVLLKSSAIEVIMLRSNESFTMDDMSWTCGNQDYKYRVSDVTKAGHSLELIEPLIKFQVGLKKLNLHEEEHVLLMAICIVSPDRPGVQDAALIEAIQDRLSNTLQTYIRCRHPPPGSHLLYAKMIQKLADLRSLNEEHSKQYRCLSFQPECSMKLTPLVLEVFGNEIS

Take `C=C1/C(=C\C=C2/CCC[C@@]3(C)C2CC[C@@H]3C(C)CCCC(C)(C)O)C[C@@H](OC(=O)CBr)CC1O` (stereo partly drawn) [AMPI-109, 1α,25-dihydroxyvitamin D3-3-bromoacetate]: the VDR activation entry at VDR is listed as “constitutively activated VDR”. Moreover, the “stability in mouse liver homogenate” value in data set [1] is given as “corresponds to the peak of a standard sample”. For the same compound, in [2], the gross body-weights result was “not significantly different from control animals”. In addition, in [2] (every third day, day 7 to 42), the “average size of tumors at the end of the experiment” value is roughly 475 mm^3. For the same compound, in data set [3] (1 μg/kg i.p. every third day), the mortality entry is given as “All mice in the 1 μg/Kg dose died after three dosing”. Besides, the “relative MTD” value in data set [3] (i.p., every third day, based on dosing) is no more than 3 µg/kg. Further, in “Serum-stability study”, the “stability in human serum” value was “corresponds to the peak of a standard sample”. Besides, in the data set on normal kidney cells, the “impact on normal kidney cells versus control” value was “neither Calcitriol nor AMPI-109 had any statistically different impact”. For the same compound, the anti-tumor effect entry in [4] (0.5 μg/kg p.o. oral gavage) is “strong anti-tumor effect”; in data set [7] (0.1 μg/kg i.p. every third day, day 11 to 30) it was “strong anti-tumor effect”. In addition, the “potency in p.o.-mode relative to i.p.-mode (times less potent)” value in data set [4] (mouse, in vivo) is on record as 5 times. Besides, the body weight entry is recorded as “did not cause any significant change in body weight” in data set [4] (p.o., calcitriol 0.5 μg/kg and 1.0 μg/kg, AMPI-109 0.5 μg/kg); “some reduction in body weight” in data set [7] (0.1 μg/kg i.p.). In data set [5], the “growth of LNCaP cells” value is “almost completely inhibited the growth of LNCaP cells”. For the same compound, the “antiproliferative effect in DU-145 cells” value in the data set with DU-145 cells (2.5×10^−7M to 10^−6M, 20 hours) was “strong and dose-dependent antiproliferative effect”. Besides, the “anti-proliferative effect in DU-145 cells” value in the data set with DU-145 cells (10^−6M, separate experiment) is reported as “strong anti-proliferative effect; also recorded: significantly stronger antiproliferative agent than EB-1089”. Besides, the “message for 24-OHase” value in the data set with 24-OHase is given as “up regulated”. Also, the “reduction of proliferation of RCC 54 kidney cancer cells” value in data set [6] was greater than 95%. Besides, the “potency relative to calcitriol in reducing tumor-size” value in data set [7] (i.p., weight basis) is “approximately 5 times”. Further, the apoptosis result in data set [8] is “induced apoptosis”. Besides, the “anti-proliferative strength relative to calcitriol” value in data set [8] (mole-per-mole basis) is reported as “significantly stronger anti-proliferative agent than calcitriol”.
